Data reported in the supplement of paper PMC11451515.

Test system: P12-Ichikawa
Experiment: cell viability relative to DMSO control; higher = less cytotoxic
Settings: 48 h
Summary of the method: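 Viability values are per-plate percentages of DMSO wells, with background from cell-free wells. Library compounds in DMSO were pin-dosed, in an 11-point threefold series from 47 μM to 0.79 nM, onto NOMO1 or SEM (500 cells/well) or P12-Ichikawa (1000 cells/well) leukemia cells in 1536-well plates (5 μl). Those cells had been adapted for at least four passages in each medium, and CellTiter-Glo One luminescence was read after 48 h at 37°C.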

[1] = HPLM + 10% dialyzed FBS, 0.000781 µM
[2] = HPLM + 10% dialyzed FBS, 0.00234 µM
[3] = HPLM + 10% dialyzed FBS, 0.00702 µM
[4] = HPLM + 10% dialyzed FBS, 0.0211 µM
[5] = HPLM + 10% dialyzed FBS, 0.0632 µM
[6] = HPLM + 10% dialyzed FBS, 0.19 µM
[7] = HPLM + 10% dialyzed FBS, 0.569 µM
[8] = HPLM + 10% dialyzed FBS, 1.71 µM
[9] = HPLM + 10% dialyzed FBS, 5.12 µM
[10] = HPLM + 10% dialyzed FBS, 15.4 µM
[11] = HPLM + 10% dialyzed FBS, 46.1 µM
[12] = RPMI 5 mM glucose + 10% FBS, 0.000781 µM
[13] = RPMI 5 mM glucose + 10% FBS, 0.00234 µM
[14] = RPMI 5 mM glucose + 10% FBS, 0.00702 µM
[15] = RPMI 5 mM glucose + 10% FBS, 0.0211 µM
[16] = RPMI 5 mM glucose + 10% FBS, 0.0632 µM
[17] = RPMI 5 mM glucose + 10% FBS, 0.19 µM
[18] = RPMI 5 mM glucose + 10% FBS, 0.569 µM
[19] = RPMI 5 mM glucose + 10% FBS, 1.71 µM
[20] = RPMI 5 mM glucose + 10% FBS, 5.12 µM
[21] = RPMI 5 mM glucose + 10% FBS, 15.4 µM
[22] = RPMI 5 mM glucose + 10% FBS, 46.1 µM
[23] = RPMI 5 mM glucose + 10% dialyzed FBS, 0.000781 µM
[24] = RPMI 5 mM glucose + 10% dialyzed FBS, 0.00234 µM
[25] = RPMI 5 mM glucose + 10% dialyzed FBS, 0.00702 µM
[26] = RPMI 5 mM glucose + 10% dialyzed FBS, 0.0211 µM
[27] = RPMI 5 mM glucose + 10% dialyzed FBS, 0.0632 µM
[28] = RPMI 5 mM glucose + 10% dialyzed FBS, 0.19 µM
[29] = RPMI 5 mM glucose + 10% dialyzed FBS, 0.569 µM
[30] = RPMI 5 mM glucose + 10% dialyzed FBS, 1.71 µM
[31] = RPMI 5 mM glucose + 10% dialyzed FBS, 5.12 µM
[32] = RPMI 5 mM glucose + 10% dialyzed FBS, 15.4 µM
[33] = RPMI 5 mM glucose + 10% dialyzed FBS, 46.1 µM

Compound: OC[C@H]1O[C@H](C[C@@H]1O)N2\C=C(\I)C(=O)NC2=O
- cell viability [1]: 113%
- cell viability [2]: 114%
- cell viability [3]: 120%
- cell viability [4]: 118%
- cell viability [5]: 115%
- cell viability [6]: 124%
- cell viability [7]: 119%
- cell viability [8]: 115%
- cell viability [9]: 98.2%
- cell viability [10]: 64.4%
- cell viability [11]: 58.3%
- cell viability [12]: 110%
- cell viability [13]: 114%
- cell viability [14]: 124%
- cell viability [15]: 121%
- cell viability [16]: 129%
- cell viability [17]: 128%
- cell viability [18]: 132%
- cell viability [19]: 123%
- cell viability [20]: 115%
- cell viability [21]: 106%
- cell viability [22]: 96.7%
- cell viability [23]: 118%
- cell viability [24]: 114%
- cell viability [25]: 108%
- cell viability [26]: 119%
- cell viability [27]: 114%
- cell viability [28]: 131%
- cell viability [29]: 127%
- cell viability [30]: 115%
- cell viability [31]: 114%
- cell viability [32]: 114%
- cell viability [33]: 110%

Compound: CCC1=C2CN3C(=O)\C4=C(/C=C3/C2=NC5=CC=C(O)C=C15)[C@@](O)(CC)C(=O)OC4
- cell viability [1]: 97%
- cell viability [2]: 95%
- cell viability [3]: 33.6%
- cell viability [4]: 14.5%
- cell viability [5]: 9.38%
- cell viability [6]: 6.95%
- cell viability [7]: 6.95%
- cell viability [8]: 4.6%
- cell viability [9]: 5.03%
- cell viability [10]: 4.34%
- cell viability [11]: 4.16%
- cell viability [12]: 93.6%
- cell viability [13]: 91.9%
- cell viability [14]: 28.2%
- cell viability [15]: 10.6%
- cell viability [16]: 8.05%
- cell viability [17]: 6.33%
- cell viability [18]: 6.06%
- cell viability [19]: 5.12%
- cell viability [20]: 4.73%
- cell viability [21]: 4.49%
- cell viability [22]: 4.85%
- cell viability [23]: 98.3%
- cell viability [24]: 83.8%
- cell viability [25]: 30.2%
- cell viability [26]: 15.1%
- cell viability [27]: 11%
- cell viability [28]: 7.31%
- cell viability [29]: 6.37%
- cell viability [30]: 5.25%
- cell viability [31]: 5.83%
- cell viability [32]: 5.8%
- cell viability [33]: 5%

Compound: N[S+](=O)([O-])c1cc2c(cc1Cl)NCN[S+]2(=O)[O-]
- cell viability [1]: 94.4%
- cell viability [2]: 103%
- cell viability [3]: 104%
- cell viability [4]: 110%
- cell viability [5]: 112%
- cell viability [6]: 116%
- cell viability [7]: 116%
- cell viability [8]: 113%
- cell viability [9]: 111%
- cell viability [10]: 110%
- cell viability [11]: 104%
- cell viability [12]: 111%
- cell viability [13]: 115%
- cell viability [14]: 110%
- cell viability [15]: 125%
- cell viability [16]: 118%
- cell viability [17]: 126%
- cell viability [18]: 126%
- cell viability [19]: 121%
- cell viability [20]: 108%
- cell viability [21]: 118%
- cell viability [22]: 120%
- cell viability [23]: 110%
- cell viability [24]: 106%
- cell viability [25]: 108%
- cell viability [26]: 105%
- cell viability [27]: 116%
- cell viability [28]: 105%
- cell viability [29]: 111%
- cell viability [30]: 116%
- cell viability [31]: 118%
- cell viability [32]: 107%
- cell viability [33]: 104%

Compound: CON(C)C(=O)N1\N=C(/S[C@]1(CCCN)C2=CC=CC=C2)C3=CC(=CC=C3F)F
- cell viability [1]: 46%
- cell viability [2]: 13.4%
- cell viability [3]: 12.4%
- cell viability [4]: 12.8%
- cell viability [5]: 13%
- cell viability [6]: 12.8%
- cell viability [7]: 14.2%
- cell viability [8]: 12.1%
- cell viability [9]: 12.7%
- cell viability [10]: 11.2%
- cell viability [11]: 13.1%
- cell viability [12]: 12%
- cell viability [13]: 17.2%
- cell viability [14]: 17.5%
- cell viability [15]: 16.2%
- cell viability [16]: 16.8%
- cell viability [17]: 17.7%
- cell viability [18]: 16.6%
- cell viability [19]: 13.6%
- cell viability [20]: 14.2%
- cell viability [21]: 12.2%
- cell viability [22]: 11.2%
- cell viability [23]: 24.8%
- cell viability [24]: 28%
- cell viability [25]: 21.3%
- cell viability [26]: 21.4%
- cell viability [27]: 22.5%
- cell viability [28]: 24.6%
- cell viability [29]: 21%
- cell viability [30]: 22.4%
- cell viability [31]: 19.1%
- cell viability [32]: 18.3%
- cell viability [33]: 19.9%

Compound: O=C(O)CCCc1ccc(N(CCCl)CCCl)cc1
- cell viability [1]: 117%
- cell viability [2]: 116%
- cell viability [3]: 118%
- cell viability [4]: 122%
- cell viability [5]: 125%
- cell viability [6]: 122%
- cell viability [7]: 125%
- cell viability [8]: 126%
- cell viability [9]: 123%
- cell viability [10]: 123%
- cell viability [11]: 20.4%

Compound: Cc1n[nH]c2ccc(-c3cncc(OC[C@@H](N)Cc4c[nH]c5ccccc45)c3)cc12
- cell viability [12]: 108%
- cell viability [13]: 114%
- cell viability [14]: 100%
- cell viability [15]: 98.9%
- cell viability [16]: 88.5%
- cell viability [17]: 70.2%
- cell viability [18]: 80.3%
- cell viability [19]: 35.5%
- cell viability [20]: 17.8%
- cell viability [21]: 2.32%
- cell viability [22]: 1.05%
- cell viability [23]: 107%
- cell viability [24]: 119%
- cell viability [25]: 105%
- cell viability [26]: 108%
- cell viability [27]: 96.9%
- cell viability [28]: 74.8%
- cell viability [29]: 64%
- cell viability [30]: 38.5%
- cell viability [31]: 27.1%
- cell viability [32]: 2.44%
- cell viability [33]: 1.33%

Compound: CN1C(=O)C(=C/2N(C(=O)N(C3CC3)C(=O)C2=C1/NC4=CC=C(I)C=C4F)C5=CC=CC(=C5)NC(C)=O)\C
- cell viability [1]: 121%
- cell viability [2]: 130%
- cell viability [3]: 122%
- cell viability [4]: 123%
- cell viability [5]: 113%
- cell viability [6]: 112%
- cell viability [7]: 101%
- cell viability [8]: 90.9%
- cell viability [9]: 12.8%
- cell viability [10]: 4.68%
- cell viability [11]: 4.28%

Compound: O=C(O)C(=O)Nc1cccc(-c2nnn[nH]2)c1
- cell viability [1]: 101%
- cell viability [2]: 94.9%
- cell viability [3]: 103%
- cell viability [4]: 108%
- cell viability [5]: 108%
- cell viability [6]: 106%
- cell viability [7]: 105%
- cell viability [8]: 106%
- cell viability [9]: 112%
- cell viability [10]: 112%
- cell viability [11]: 111%
- cell viability [12]: 109%
- cell viability [13]: 111%
- cell viability [14]: 106%
- cell viability [15]: 112%
- cell viability [16]: 126%
- cell viability [17]: 107%
- cell viability [18]: 113%
- cell viability [19]: 114%
- cell viability [20]: 108%
- cell viability [21]: 116%
- cell viability [22]: 107%
- cell viability [23]: 100%
- cell viability [24]: 105%
- cell viability [25]: 106%
- cell viability [26]: 108%
- cell viability [27]: 107%
- cell viability [28]: 106%
- cell viability [29]: 100%
- cell viability [30]: 105%
- cell viability [31]: 98.4%
- cell viability [32]: 105%
- cell viability [33]: 102%

Compound: CCOC(=O)c1c(/C(C#N)=C\N)c2ccc(Cl)c(Cl)c2n1C
- cell viability [1]: 90.1%
- cell viability [2]: 94.9%
- cell viability [3]: 84.9%
- cell viability [4]: 97.5%
- cell viability [5]: 91.7%
- cell viability [6]: 92.2%
- cell viability [7]: 92.1%
- cell viability [8]: 91.6%
- cell viability [9]: 84.7%
- cell viability [10]: 83%
- cell viability [11]: 91.7%
- cell viability [12]: 88.1%
- cell viability [13]: 88.7%
- cell viability [14]: 85.5%
- cell viability [15]: 94.8%
- cell viability [16]: 83.2%
- cell viability [17]: 86.3%
- cell viability [18]: 81.1%
- cell viability [19]: 91%
- cell viability [20]: 82.8%
- cell viability [21]: 81.2%
- cell viability [22]: 87.4%
- cell viability [23]: 84.5%
- cell viability [24]: 86.2%
- cell viability [25]: 89.9%
- cell viability [26]: 92.8%
- cell viability [27]: 90.6%
- cell viability [28]: 96.9%
- cell viability [29]: 87.9%
- cell viability [30]: 88.7%
- cell viability [31]: 89%
- cell viability [32]: 92.8%
- cell viability [33]: 90.8%
